Assay results reported in US20140378463A1, “IP receptor agonist heterocyclic compounds” (NOVARTIS AG, priority 2012, published 2014).

Target: T1, IP receptor (Homo sapiens, UniProt P43119)
T1 construct: expressed in transfected cells; host or cells: CHO cells stably expressing the IP receptor (CHO-IP)
Assay: cAMP accumulation in CHO cells stably expressing the IP receptor (CHO-IP), PerkinElmer AlphaScreen assay
Type: cell-based
Details: 1 hour at room temperature, 4-parameter logistic fit
Method: Activity of compounds at the IP receptor (IP receptor) is assessed by measuring cAMP accumulation in CHO cells stably expressing the IP receptor (CHO-IP) using the PerkinElmer AlphaScreen assay. This technology measures the endogenous production of cAMP, in a non-radioactive luminescence proximity homogenous assay. A biological reaction occurs between streptavidin coated donor beads, biotinylated cAMP and anti-cAMP acceptor beads, bringing the donor and acceptor beads close enough together so that upon excitation a fluorescence signal is produced. On production of endogenous cAMP, competition between the biotinylated cAMP and cellular-derived cAMP causes a reduction in the fluorescent signal. The reduction in signal is proportional to the amount of cAMP being produced, thus it is possible to quantify the amount of cAMP being produced on stimulation with agonist.
Test and reference compounds are prepared at 100×[final] in 100% DMSO, and diluted 1:3 using a Biomek Fx (Beckman Coulter). This is followed by an intermediate dilution to give 5×[final] in assay buffer (HBSS containing 5 mM HEPES, 0.1% (w/v) BSA). 5 μL of 5×[final] test compounds, reference compounds and buffer/DMSO control are then transferred to a 384-well white OptiPlate, containing 20 μL CHO-IP cell suspension (15,000 cells/well, prepared from frozen), and plate is incubated at room temperature for 1 hour. A cAMP standard curve is constructed for each experiment (concentration range of 10000 nM to 0.001 nM, in assay buffer) and 25 μL of each concentration added to the last two columns of the assay plate. The incubation is terminated by the addition of lysis buffer (dH2O; 0.3% (v v^−1) Tween-20) containing 20 units mL^−1 streptavidin coated donor beads and biotinylated cAMP (pre-incubated for 30 minutes) and 20 units mL^−1 anti-cAMP acceptor beads, which are added to the lysis buffer just before addition to the assay plate. The assay plate is then incubated at room temperature in the dark, for 60 minutes with gentle shaking, and read on the Envision plate reader (Perkin Elmer).
The raw data of the reference compounds, test compounds and controls are converted into cAMP concentrations, using the cAMP standard curve, in GraphPadPrism (Graph Pad Software Inc). EC50 as well as maximal values of the agonist curves are determined using a 4-parameter logistic equation. The % maximum response values of all test compounds are determined using the top of the treprostinil concentration-response curve.

T1 sequence (P43119 whole entry): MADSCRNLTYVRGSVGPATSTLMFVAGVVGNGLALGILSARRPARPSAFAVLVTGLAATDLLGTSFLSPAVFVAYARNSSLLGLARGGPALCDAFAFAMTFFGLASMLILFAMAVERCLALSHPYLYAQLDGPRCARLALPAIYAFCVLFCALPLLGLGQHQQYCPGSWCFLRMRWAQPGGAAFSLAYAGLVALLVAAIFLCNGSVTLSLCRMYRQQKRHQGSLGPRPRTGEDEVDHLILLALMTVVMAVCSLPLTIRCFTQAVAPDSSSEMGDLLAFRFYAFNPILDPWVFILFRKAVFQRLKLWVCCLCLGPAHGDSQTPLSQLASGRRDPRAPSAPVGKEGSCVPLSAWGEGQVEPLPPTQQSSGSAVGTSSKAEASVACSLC

Row | EC50 [nM] | SMILES
1 | 25.9 | Cc1ccc(-c2nc3c(nc2-c2ccc(C)cc2)C(CCCCCC(=O)O)N(C)CC3)cc1 (racemic) [Example 3.1, rac-6-(6-Methyl-2,3-dip-tolyl-5,6,7,8-tetrahydropyrido[3,4-b]pyrazin-5-yl)hexanoic acid]
2 | 5 | Cc1ccc(-c2nc3c(nc2-c2ccc(C)cc2)C(CCCCCC(=O)O)NCC3)cc1 (racemic) [Example 2, rac-6-(2,3-Dip-tolyl-5,6,7,8-tetrahydropyrido[3,4-b]pyrazin-5-yl)hexanoic acid]
3 | 2.3 | Cc1ccc(-c2nc3c(nc2-c2ccc(C)cc2)C(CCCCCCC(=O)O)N(C)CC3)cc1 (stereo not drawn) [Example 3, 7-(6-Methyl-2,3-dip-tolyl-5,6,7,8-tetrahydropyrido[3,4-b]pyrazin-5-yl)heptanoic acid]
4 | 710 | CC1c2nc(-c3ccccc3)c(-c3ccccc3)nc2CCN1CCCCCCC(=O)O (single isomer, unassigned) [Example 1(ii), (R)-7-(5-methyl-2,3-diphenyl-7,8-dihydropyrido[3,4-b]pyrazin-6(5H)-yl)heptanoic acid or (S)-7-(5-methyl-2,3-diphenyl-7,8-dihydropyrido[3,4-b]pyrazin-6(5H)-yl)heptanoic acid]
5 | 2 | Cc1ccc(-c2nc3c(nc2-c2ccc(C)cc2)C(C)N(CCCCCC(=O)O)CC3)cc1 (stereo not drawn) [Example 1.2, 6-(5-Methyl-2,3-di-p-tolyl-7,8-dihydro-5H-pyrido[3,4-b]pyrazin-6-yl)-hexanoic acid]
6 | 275 | CC1c2nc(-c3ccccc3)c(-c3ccccc3)nc2CCN1CCCCCCC(=O)O (racemic) [Example 1, rac-7-(5-methyl-2,3-diphenyl-7,8-dihydropyrido[3,4-b]pyrazin-6(5H)-yl)heptanoic acid]
7 | 1.5 | Cc1ccc(-c2nc3c(nc2-c2ccc(C)cc2)C(C)N(CCCCC(=O)O)CC3)cc1 (stereo not drawn) [Example 1.1, 5-(5-Methyl-2,3-di-p-tolyl-7,8-dihydro-5H-pyrido[3,4-b]pyrazin-6-yl)-pentanoic acid]
8 | 190 | CC1c2nc(-c3ccccc3)c(-c3ccccc3)nc2CCN1CCCCCCC(=O)O (single isomer, unassigned) [Example 1(i), (R)-7-(5-methyl-2,3-diphenyl-7,8-dihydropyrido[3,4-b]pyrazin-6(5H)-yl)heptanoic acid or (S)-7-(5-methyl-2,3-diphenyl-7,8-dihydropyrido[3,4-b]pyrazin-6(5H)-yl)heptanoic acid]
9 | 5.4 | Cc1ccc(-c2nc3c(nc2-c2ccc(C)cc2)C(CCCCCCC(=O)O)NCC3)cc1 (racemic) [Example 2.1, rac-7-(2,3-Dip-tolyl-5,6,7,8-tetrahydropyrido[3,4-b]pyrazin-5-yl)heptanoic acid]
